Results published in patent EP1025114B1, “3'-N-MODIFIED 6-O-SUBSTITUTED ERYTHROMYCIN KETOLIDE DERIVATIVES HAVING ANTIBACTERIAL ACTIVITY” (priority 1997, dated 1999).

Tests used:
Test in all cases: In vitro antibacterial activity, agar dilution MIC
Assay type in all cases: cell-based
Candida albicans CCH 442 = Candida albicans CCH 442 (organism code TT); BHI agar, 35-37 °C, 20 to 24 hours; unit assumed
Protocol: (§1) Representative compounds of the present invention were assayed in vitro for antibacterial activity as follows: Twelve petri dishes containing successive aqueous dilutions of the test compound mixed with 10 mL of sterilized Brain Heart infusion (BHI) agar (Difco 0418-01-5) were prepared. Each plate was inoculated with 1:100 (or 1:10 for slow-growing strains, such as Micrococcus and Streptococcus) dilutions of up to 32 different microorganisms, using a Steers replicator block. […] In addition, a control plate, using BHI agar containing no test compound, was prepared and incubated at the beginning and end of each test.
(§2) An additional plate containing a compound having known susceptibility patterns for the organisms being tested and belonging to the same antibiotic class as the test compound was also prepared and incubated as a further control, as well as to provide test-to-test comparability.
(§3) After incubation, each plate was visually inspected. The minimum inhibitory concentration (MIC) was defined as the lowest concentration of drug yielding no growth, a slight haze, or sparsely isolated colonies on the inoculum spot as compared to the growth control.

[1] = test system: Enterococcus faecium ATCC 8043; conditions: Enterococcus faecium ATCC 8043 (organism code II); BHI agar, 35-37 °C, 20 to 24 hours; unit assumed
Protocol: as §1, §2, §3

Escherichia coli DC-2 = Escherichia coli DC-2 (organism code SS); BHI agar, 35-37 °C, 20 to 24 hours; unit assumed
Protocol: as §1, §2, §3

Escherichia coli JUHL = Escherichia coli JUHL (organism code QQ); BHI agar, 35-37 °C, 20 to 24 hours; unit assumed
Protocol: as §1, §2, §3

Escherichia coli SS = Escherichia coli SS (organism code RR); BHI agar, 35-37 °C, 20 to 24 hours; unit assumed
Protocol: as §1, §2, §3

[2] = test system: Haemophilis Influenzae DILL AMP R; conditions: Haemophilis Influenzae DILL AMP R (organism code WW); BHI agar, 35-37 °C, 20 to 24 hours; unit assumed
Protocol: as §1, §2, §3

[3] = test system: Micrococcus luteus ATCC 4698; conditions: Micrococcus luteus ATCC 4698 (organism code PP); BHI agar, 35-37 °C, 20 to 24 hours; unit assumed
Protocol: as §1, §2, §3

[4] = test system: Micrococcus luteus ATCC 9341; conditions: Micrococcus luteus ATCC 9341 (organism code OO); BHI agar, 35-37 °C, 20 to 24 hours; unit assumed
Protocol: as §1, §2, §3

[5] = test system: Mycobacterium smegmatis ATCC 114; conditions: Mycobacterium smegmatis ATCC 114 (organism code UU); BHI agar, 35-37 °C, 20 to 24 hours; unit assumed
Protocol: as §1, §2, §3

[6] = test system: Nocardia Asteroides ATCC9970; conditions: Nocardia Asteroides ATCC9970 (organism code VV); BHI agar, 35-37 °C, 20 to 24 hours; unit assumed
Protocol: as §1, §2, §3

[7] = test system: Staphylococcus aureus 1775; conditions: Staphylococcus aureus 1775 (organism code GG); BHI agar, 35-37 °C, 20 to 24 hours; unit assumed
Protocol: as §1, §2, §3

[8] = test system: Staphylococcus aureus A-5278; conditions: Staphylococcus aureus A-5278 (organism code CC); BHI agar, 35-37 °C, 20 to 24 hours; unit assumed
Protocol: as §1, §2, §3

[9] = test system: Staphylococcus aureus A5177; conditions: Staphylococcus aureus A5177 (organism code BB); BHI agar, 35-37 °C, 20 to 24 hours; unit assumed
Protocol: as §1, §2, §3

[10] = test system: Staphylococcus aureus ATCC 6538P; conditions: Staphylococcus aureus ATCC 6538P (organism code AA); BHI agar, 35-37 °C, 20 to 24 hours; unit assumed
Protocol: as §1, §2, §3

[11] = test system: Staphylococcus aureus CMX 553; conditions: Staphylococcus aureus CMX 553 (organism code FF); BHI agar, 35-37 °C, 20 to 24 hours; unit assumed
Protocol: as §1, §2, §3

[12] = test system: Staphylococcus aureus CMX 642A; conditions: Staphylococcus aureus CMX 642A (organism code DD); BHI agar, 35-37 °C, 20 to 24 hours; unit assumed
Protocol: as §1, §2, §3

[13] = test system: Staphylococcus aureus NCTC10649M; conditions: Staphylococcus aureus NCTC10649M (organism code EE); BHI agar, 35-37 °C, 20 to 24 hours; unit assumed
Protocol: as §1, §2, §3

[14] = test system: Staphylococcus epidermidis 3519; conditions: Staphylococcus epidermidis 3519 (organism code HH); BHI agar, 35-37 °C, 20 to 24 hours; unit assumed
Protocol: as §1, §2, §3

[15] = test system: Streptococcus Pheumoniae 5649; conditions: Streptococcus Pheumoniae 5649 (organism code ZZA); BHI agar, 35-37 °C, 20 to 24 hours; unit assumed
Protocol: as §1, §2, §3

[16] = test system: Streptococcus Pheumoniae 5979; conditions: Streptococcus Pheumoniae 5979 (organism code ZZ); BHI agar, 35-37 °C, 20 to 24 hours; unit assumed
Protocol: as §1, §2, §3

[17] = test system: Streptococcus Pheumoniae ATCC6303; conditions: Streptococcus Pheumoniae ATCC6303 (organism code XX); BHI agar, 35-37 °C, 20 to 24 hours; unit assumed
Protocol: as §1, §2, §3

[18] = test system: Streptococcus Pheumoniae GYR 1171; conditions: Streptococcus Pheumoniae GYR 1171 (organism code YY); BHI agar, 35-37 °C, 20 to 24 hours; unit assumed
Protocol: as §1, §2, §3

[19] = test system: Streptococcus agalactiae CMX 508; conditions: Streptococcus agalactiae CMX 508 (organism code KK); BHI agar, 35-37 °C, 20 to 24 hours; unit assumed
Protocol: as §1, §2, §3

[20] = test system: Streptococcus bovis A-5169; conditions: Streptococcus bovis A-5169 (organism code JJ); BHI agar, 35-37 °C, 20 to 24 hours; unit assumed
Protocol: as §1, §2, §3

[21] = test system: Streptococcus pyogenes 930; conditions: Streptococcus pyogenes 930 (organism code MM); BHI agar, 35-37 °C, 20 to 24 hours; unit assumed
Protocol: as §1, §2, §3

[22] = test system: Streptococcus pyogenes EES61; conditions: Streptococcus pyogenes EES61 (organism code LL); BHI agar, 35-37 °C, 20 to 24 hours; unit assumed
Protocol: as §1, §2, §3

[23] = test system: Streptococcus pyogenes PIU 2548; conditions: Streptococcus pyogenes PIU 2548 (organism code NN); BHI agar, 35-37 °C, 20 to 24 hours; unit assumed
Protocol: as §1, §2, §3

Row | SMILES | MIC (Candida albicans CCH 442) [µg/mL] | MIC [1] [µg/mL] | MIC (Escherichia coli DC-2) [µg/mL] | MIC (Escherichia coli JUHL) [µg/mL] | MIC (Escherichia coli SS) [µg/mL] | MIC [2] [µg/mL] | MIC [3] [µg/mL] | MIC [4] [µg/mL] | MIC [5] [µg/mL] | MIC [6] [µg/mL] | MIC [7] [µg/mL] | MIC [8] [µg/mL] | MIC [9] [µg/mL] | MIC [10] [µg/mL] | MIC [11] [µg/mL] | MIC [12] [µg/mL] | MIC [13] [µg/mL] | MIC [14] [µg/mL] | MIC [15] [µg/mL] | MIC [16] [µg/mL] | also measured
1 | CC[C@H]1OC(=O)[C@H](C)C(=O)[C@H](C)[C@@H](O[C@@H]2O[C@H](C)C[C@H](NC)[C@H]2OC(C)=O)[C@](C)(OCC=Cc2cnc3ccccc3c2)C[C@@H](C)C(=O)[C@H](C)[C@H]2NC(=O)O[C@@]21C [Example 2, Compound of formula (II), R is -CH2CH=CH-(3-quinolyl), R^p is acetyl, R^1 is H, R^2 is CH3, W is absent, R^w is H] | > 100 | 0.05 | > 100 | > 100 | 0.39 | 16 | 0.1 | 0.02 | 3.1 | 1.56 | > 100 | > 100 | 0.2 | 0.2 | 0.2 | 0.2 | 0.2 | 0.2 | 0.5 | 128 | MIC [17]: 0.03 µg/mL; MIC [18]: 0.03 µg/mL; MIC [19]: ≤ 0.005 µg/mL; MIC [20]: ≤ 0.005 µg/mL; MIC [21]: 25 µg/mL; MIC [22]: ≤ 0.005 µg/mL; MIC [23]: 0.39 µg/mL
2 | CCCN(C)[C@H]1C[C@@H](C)O[C@@H](O[C@@H]2[C@@H](C)C(=O)[C@@H](C)C(=O)O[C@H](CC)[C@@]3(C)OC(=O)N[C@@H]3[C@@H](C)C(=O)[C@H](C)C[C@@]2(C)OCC=Cc2cnc3ccccc3c2)[C@@H]1O [Example 16, Compound of Formula (II); R is -CH2CH=CH-(3-quinolyl), R^p is H, W is absent, R^w is H, R^1 is CH2CH2CH3, R^2 is CH3] | > 100 | 0.05 | > 100 | > 100 | 0.2 | 8 | 0.39 | 0.02 | 1.56 | 0.1 | > 100 | > 100 | 0.39 | 0.39 | 0.39 | 0.39 | 0.39 | 0.39 | 0.5 | 128 | MIC [17]: 0.03 µg/mL; MIC [18]: 0.03 µg/mL; MIC [19]: 0.01 µg/mL; MIC [20]: 0.01 µg/mL; MIC [21]: 12.5 µg/mL; MIC [22]: 0.01 µg/mL; MIC [23]: 0.1 µg/mL
